Laboratory results taken from the supplement of paper PMC10307832.

Experiments:
Test in all cases: relative viability (nuclei count vs DMSO), 5 days (fraction); higher = more cells survive
[1] = compound: CCn1c(-c2nonc2N)nc2c(C#CC(C)(C)O)ncc(OC[C@H]3CCCNC3)c21 + CC(=O)c1c(C)c2cnc(Nc3ccc(N4CCNCC4)cn3)nc2n(C2CCCC2)c1=O [Palbociclib] (partner 0.5 µM)
How it was run: (§1)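 Relative viability is defined as nuclei in treated wells over nuclei in vehicle wells. Duplicate plates were run and medians reported. Lung cancer cell lines in 1536-well plates were dosed by pin tool one day after seeding, with one drug or with a fixed anchor-drug dose plus five library-drug doses (not always all listed) in √10 steps, and nuclei were counted after 5 days.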

[2] = compound: CCn1c(-c2nonc2N)nc2c(C#CC(C)(C)O)ncc(OC[C@H]3CCCNC3)c21 + Cc1nc(Nc2ncc(C(=O)Nc3c(C)cccc3Cl)s2)cc(N2CCN(CCO)CC2)n1 [Dasatinib] (partner 0.075 µM)
How it was run: as §1

BAM7 + Bortezomib = compound: CCOC1=CC=CC=C1N=NC2=C(NN(C2=O)C3=NC(=CS3)C4=CC=CC=C4)C [BAM7] + CC(C)C[C@H](NC(=O)[C@H](Cc1ccccc1)NC(=O)c1cnccn1)B(O)O [Bortezomib] (partner 0.002 µM)
How it was run: as §1

BAM7 + Linsitinib = compound: CCOC1=CC=CC=C1N=NC2=C(NN(C2=O)C3=NC(=CS3)C4=CC=CC=C4)C [BAM7] + C[C@]1(O)C[C@@H](c2nc(-c3ccc4ccc(-c5ccccc5)nc4c3)c3c(N)nccn32)C1 [Linsitinib] (partner 1 µM)
How it was run: as §1

Cell Line	relative viability ([1]; first compound 0.01 µM)	relative viability ([1]; first compound 0.03162 µM)	relative viability ([1]; first compound 0.1 µM)	relative viability ([1]; first compound 0.3162 µM)	relative viability ([1]; first compound 1 µM)	relative viability ([2]; first compound 0.01 µM)	relative viability ([2]; first compound 0.03162 µM)	relative viability ([2]; first compound 0.1 µM)	relative viability ([2]; first compound 0.3162 µM)	relative viability ([2]; first compound 1 µM)	relative viability (BAM7 + Bortezomib; first compound 0.5 µM)	relative viability (BAM7 + Bortezomib; first compound 5 µM)	relative viability (BAM7 + Bortezomib; first compound 15.81 µM)	relative viability (BAM7 + Bortezomib; first compound 50 µM)	relative viability (BAM7 + Linsitinib; first compound 0.5 µM)	relative viability (BAM7 + Linsitinib; first compound 5 µM)	relative viability (BAM7 + Linsitinib; first compound 15.81 µM)	relative viability (BAM7 + Linsitinib; first compound 50 µM)
NCI-H1355	0.408	0.367	0.406	0.382	0.382	0.64	0.66	0.738	0.682	0.755	1.2	1.16	1.13	1.11	0.89	0.823	0.729	0.792
NCI-H1437	0.295	0.297	0.338	0.281	0.359	0.381	0.359	0.391	0.385	0.354	0.537	0.412	0.395	0.551	1.03	0.959	0.922	0.993
NCI-H1651	0.518	0.528	0.505	0.49	0.56	0.43	0.402	0.412	0.396	0.454	0.992	0.917	0.988	0.926	1.05	1.09	1.01	1.02
NCI-H1666	0.615	0.647	0.645	0.626	0.636	0.847	0.99	0.833	0.819	0.771	0.852	0.682	0.729	0.998	0.835	0.867	0.734	0.854
NCI-H1734	0.375	0.332	0.306	0.303	0.33	0.473	0.475	0.414	0.407	0.38	1.13	1.12	0.888	0.978	0.946	1.07	0.821	0.937
NCI-H1755	0.451	0.514	0.463	0.437	0.422	0.432	0.419	0.423	0.42	0.42	1.02	1.01	0.949	0.95	1.01	1.06	1.02	0.978
NCI-H1792	0.607		0.601	0.586	0.701	0.758		0.818	0.705	0.897	1.09	1.06	0.97	0.957	0.64	0.54	0.542	0.628
NCI-H1915	0.488	0.545	0.531	0.487	0.537	0.295	0.309	0.324	0.302	0.368	0.988	1.01	1.09	1.03	1.08	1.2	1.08	1.1
NCI-H1975	0.484	0.599	0.51	0.544	0.305	0.355	0.462	0.412	0.376	0.306	0.356	0.379		0.386	0.847	0.981		0.898
